One may read the IC50 as the concentration at which inhibition is half-maximal.

Where “and” joins values, the source holds several entries; their conditions need not be identical. Equal values may be shown once. Calls of active or inactive are those of the source. The rule behind the calls is not given here.

Ubiquitin-conjugating enzyme E2 N (Homo sapiens), sequence (P61088 whole entry, looked up): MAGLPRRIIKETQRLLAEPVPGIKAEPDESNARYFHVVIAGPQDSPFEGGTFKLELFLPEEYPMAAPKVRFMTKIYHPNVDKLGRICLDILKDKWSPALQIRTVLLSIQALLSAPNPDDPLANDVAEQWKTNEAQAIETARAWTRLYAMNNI

The experiment has as its target Ubiquitin-conjugating enzyme E2 N (Homo sapiens) (UniProt P61088). Nature of the experiment: analogue potency against UBC13 ubiquitin chains – biochemical, TR-FRET, SAR follow-up (AID 504687). Particulars: UBC13 polyubiquitin formation. (Time-resolved FRET reads energy transfer from a long-lived donor to a nearby acceptor.)
With `Cc1[nH]c2c(Cl)c(Cl)ccc2c1CCNC(=O)CCCCCN1C(=O)c2ccccc2C1=O`, the IC50 was 0.67 µM.

For the compound `Cc1cc(C)c2sc(N(CCCN(C)C)C(=O)c3ccc(S(=O)(=O)N(C)C4CCCCC4)cc3)nc2c1`, the IC50 was 7.48 µM.

Consider `Cc1ccccc1CN1CCC(CNC(=O)C2CCCN(c3ncnc4c3nc3n4CCCCC3)C2)CC1` (centres undefined), for which the IC50 was 4.69 µM.

With `CCOc1ccc(NC(=O)Cn2c(=O)n(CCCC(=O)NC3CCN(Cc4ccccc4)CC3)c(=O)c3ccccc32)cc1`, the IC50 was 3.06 µM.

Turning to `O=C1c2cccc3cccc(c23)C(=O)N1CCN1CCN(CC(O)COCc2ccc(Cl)cc2)CC1` (centres undefined), the half-maximal inhibitory concentration (IC50) was 1.07 µM.

Consider `O=C(CCCCCN1C(=O)c2ccccc2C1=O)NCc1ccccn1`, for which the IC50 entry was “inactive”.

For `NNC(=O)c1ccc(CN2C(=O)c3cccc4cccc2c34)cc1`, the IC50 is 1.78 µM.

Consider `Cc1ccc2nc(N(CCCN(C)C)C(=O)c3ccc(S(=O)(=O)N4CCc5ccccc5C4)cc3)sc2c1`, for which the IC50 is 4.83 µM.

Turning to `O=C1c2cccc3cccc(c23)N1Cc1ccc(F)cc1`, the IC50 was 3.57 µM.

Turning to `CN(C)CCCN(C(=O)c1ccc(S(=O)(=O)N2CCCC2)cc1)c1nc2ccc(Br)cc2s1`, the IC50 was 6.86 µM.

In the case of `Cc1ccccc1OCC(O)CN1CCN(CCN2C(=O)c3cccc4cccc(c34)C2=O)CC1` (centres undefined), the IC50 is 12.8 µM.

As for `COc1cccc(NC(=O)CCCCCN2C(=O)c3cccc([N+](=O)[O-])c3C2=O)c1`, the IC50 is > 100 µM (inactive).

Take `O=C(NCC1CCN(Cc2ccc(Cl)cc2)CC1)C1CCCN(c2ncnc3c2nc2n3CCCCC2)C1` (centres undefined): the IC50 is 4.33 µM.

Take `O=C(CCCCCN1C(=O)c2cccc3cccc(c23)C1=O)NCc1cccnc1`: the IC50 is 5.08 µM.

Consider `CCOc1cccc2sc(N(CCCN(C)C)C(=O)c3ccc(S(=O)(=O)N(C)Cc4ccccc4)cc3)nc12`, for which the IC50 is 4.3 µM.

Turning to `Cc1ccc(OCC(O)CN2CCN(CCN3C(=O)c4cccc5cccc(c45)C3=O)CC2)c(C)c1` (centres undefined), the IC50 is 4.75 µM.

`CC1CCCC(C)N1CCCNC(=O)C1CCCN(c2ncnc3c2nc2n3CCCCC2)C1` (centres undefined): the IC50 was 12.3 µM.

As to `O=C(C1CCN(c2ncnc3c2nc2n3CCCCC2)CC1)N1CCN(Cc2ccccc2)CC1`, the IC50 was 6.45 µM.

On to `O=C(CCCCCN1C(=O)c2ccccc2C1=O)Nc1ccc(S(=O)(=O)Nc2ncccn2)cc1`, for which the IC50 was > 100 µM (inactive).

On to `CCN(Cc1ccccc1)S(=O)(=O)c1ccc(C(=O)N(CCCN(C)C)c2nc3cc(C)cc(C)c3s2)cc1`, for which the IC50 is 4.07 µM.

Regarding `CN(C)CCCN(C(=O)c1ccc(C(=O)c2ccccc2)cc1)c1nc2cc3c(cc2s1)OCO3`, the IC50 is 6.57 µM.

On to `CCN(Cc1ccccc1)S(=O)(=O)c1ccc(C(=O)N(CCCN(C)C)c2nc3cc4c(cc3s2)OCO4)cc1`, for which the IC50 is 4.47 µM.

For `C=CCc1ccccc1OCC(O)CN1CCN(CCN2C(=O)c3cccc4cccc(c34)C2=O)CC1` (centres undefined), the IC50 is 11.7 µM.

With `COc1ccc(NC(=O)CCCCCN2C(=O)c3cccc([N+](=O)[O-])c3C2=O)cc1`, the IC50 was > 100 µM (inactive).

As to `CCC1CCCCN1CCCNC(=O)C1CCN(c2ncnc3c2nc2n3CCCCC2)CC1` (centres undefined), the half-inhibitory concentration (IC50) was 7.28 µM.

As for `CCOc1cccc2sc(N(CCCN(C)C)C(=O)c3ccc(S(=O)(=O)N4CCc5ccccc5C4)cc3)nc12`, the IC50 is 4.1 µM.

As to `CCc1ccc2nc(N(CCCN(C)C)C(=O)c3ccc(S(=O)(=O)N4CCc5ccccc5C4)cc3)sc2c1`, the IC50 is 2.8 µM.

Consider `O=C(C1CCN(c2ncnc3c2nc2n3CCCCC2)CC1)N1CCC(Cc2ccccc2)CC1`, for which the IC50 was 15 µM.

With `CC(=O)Nc1ccc(OCC(O)CN2CCN(CCN3C(=O)c4cccc5cccc(c45)C3=O)CC2)cc1` (centres undefined), the IC50 is 17.4 µM.

As for `O=C(CCCCCN1C(=O)c2cccc3cccc(c23)C1=O)NCCO`, the IC50 is 12.7 µM.

For `COc1ccc(CCNC(=O)CCCCCN2C(=O)c3ccccc3C2=O)cc1OC`, the IC50 result is “inactive”.

As for `O=C1c2cccc3cccc(c23)C(=O)N1CCN1CCN(CC(O)COc2ccc(C3CCCCC3)cc2)CC1` (centres undefined), the IC50 is 6.02 µM.

Regarding `CN(C)CCCN(C(=O)c1ccc(S(=O)(=O)N2CCCCCC2)cc1)c1nc2cc3c(cc2s1)OCCO3`, the IC50 was 2.12 µM.

Consider `O=C1c2cccc3cccc(c23)C(=O)N1CC1CCN(CC(O)COCc2ccc3c(c2)OCO3)CC1` (centres undefined), for which the IC50 is 1.9 µM.

Regarding `CC(NC(=O)CCCCCN1C(=O)c2ccccc2C1=O)c1nc(-c2ccccc2)no1` (centres undefined), the IC50 was 10.6 µM.

Consider `CN(C)CCCn1c(SCC(=O)Nc2nc(-c3cccc(Br)c3)cs2)nc2ccccc2c1=O`, for which the IC50 was 4.18 µM.

`CCOC(=O)c1c(NC(=O)COc2ccccc2C#N)sc2c1CC(C)(C)NC2(C)C`: the IC50 was 2.35 µM.

In the case of `Cc1cc(C)cc(OCCNC(=O)CCCCCN2C(=O)c3ccccc3C2=O)c1`, the IC50 was > 100 µM (inactive).

As to `Cc1ccccc1NC(=S)NC(=O)CCCCCN1C(=O)c2ccccc2C1=O`, the IC50 is > 100 µM (inactive).

With `O=C(CCCCCN1C(=O)c2ccccc2C1=O)NCc1ccccc1`, the IC50 is 15.8 µM.

`CC1CCCCN1C(=O)C1CCN(c2ncnc3c2nc2n3CCCCC2)CC1` (centres undefined): the IC50 result is “inactive”.

Turning to `Cc1cccc(C)c1NC(=O)Cn1c(=O)n(CCCC(=O)NC2CCN(Cc3ccccc3)CC2)c(=O)c2ccccc21`, the IC50 was 1.69 µM.

Regarding `O=C(CCCn1c(=O)c2ccccc2n(Cc2ccc(Cl)cc2)c1=O)NC1CCN(Cc2ccccc2)CC1`, the IC50 is 0.35 µM.

With `CN(CCNC(=O)C1CCN(c2ncnc3c2nc2n3CCCCC2)CC1)Cc1ccccc1`, the IC50 is 1.65 µM.

With `Cc1c(NC(=O)CCCN2C(=O)c3cccc4cccc(c34)C2=O)c(=O)n(-c2ccccc2)n1C`, the half-inhibitory concentration (IC50) is 2.65 µM.

Consider `CCOc1ccc2nc(N(CCCN(C)C)C(=O)c3ccc(S(=O)(=O)N4CCc5ccccc5C4)cc3)sc2c1`, for which the IC50 was 3.19 µM.

In the case of `O=C(CCCn1c(=O)c2ccccc2n(Cc2ccccc2F)c1=O)NC1CCN(Cc2ccccc2)CC1`, the IC50 is 0.45 µM.

In the case of `O=C(CCCCCN1C(=O)c2ccccc2C1=O)NCCc1nc2ccccc2[nH]1`, the IC50 was 10.2 µM.

For the compound `CCOc1ccc2nc(N(CCCN(C)C)C(=O)c3ccc(C(=O)c4ccccc4)cc3)sc2c1`, the IC50 was 3.4 µM.

Regarding `O=C(Nc1ccc(F)c(Cl)c1)C1CCN(c2ncnc3c2nc2n3CCCCC2)CC1`, the IC50 is 6.08 µM.

With `COC(=O)C1=C(NC(=O)CCCCCN2C(=O)c3ccccc3C2=O)SC2CCCC12` (centres undefined), the IC50 was > 100 µM (inactive).

Turning to `CN(C)CCCN(C(=O)c1ccc(S(=O)(=O)N(C)Cc2ccccc2)cc1)c1nc2cc3c(cc2s1)OCO3`, the IC50 is 2.53 µM.

In the case of `COc1ccc(COCC(O)CN2CCC(CN3C(=O)c4cccc5cccc(c45)C3=O)CC2)cc1OC` (centres undefined), the IC50 was 5.6 µM.

Consider `COc1cccc(OCC(O)CN2CCN(CCN3C(=O)c4cccc5cccc(c45)C3=O)CC2)c1` (centres undefined), for which the IC50 is 9.98 µM and 9.03 µM.

As for `O=C(NCC1CCN(Cc2ccc(F)cc2)CC1)C1CCCN(c2ncnc3c2nc2n3CCCCC2)C1` (centres undefined), the IC50 is 3.53 µM.

As for `O=C(CCCn1c(=O)c2ccccc2n(Cc2cccc([N+](=O)[O-])c2)c1=O)NC1CCN(Cc2ccccc2)CC1`, the IC50 is 0.34 µM.

For `O=C(C1CCN(c2ncnc3c2nc2n3CCCCC2)CC1)N1CCN(c2ccccc2)CC1`, the IC50 result was “inactive”.

As for `CC1(C)Cc2c(sc(NC(=O)COc3ccc(Cl)cc3Cl)c2C(N)=O)C(C)(C)N1`, the IC50 is 1.66 µM.

For the compound `COc1ccc(CCNC(=O)CCCCCN2C(=O)c3ccccc3C2=O)cc1`, the IC50 result was “inactive”.

With `CCCN1CCN(C(=O)C2CCN(c3ncnc4c3nc3n4CCCCC3)CC2)CC1`, the half-maximal inhibitory concentration (IC50) is 3.42 µM.

Consider `COc1cc(/C=C/c2cc[n+](C)cc2)ccc1OCC(=O)Nc1ccc(Cl)c(Cl)c1`, for which the IC50 is 3.5 µM.

In the case of `O=C1c2cccc3cccc(c23)C(=O)N1CCN1CCN(CC(O)COc2ccc3c(c2)OCO3)CC1` (centres undefined), the half-inhibitory concentration (IC50) is 6.68 µM.

Consider `O=C(CCCCn1c(=O)c2ccccc2n(Cc2ccccc2)c1=O)NC1CCN(Cc2ccccc2)CC1`, for which the IC50 was 1.63 µM.

Consider `O=C1c2cccc3cccc(c23)C(=O)N1CCN1CCN(CC(O)COc2ccccc2)CC1` (centres undefined), for which the half-maximal inhibitory concentration (IC50) is 17.6 µM.

In the case of `O=C(c1ccco1)N1CCN(C(=O)C2CCN(c3ncnc4c3nc3n4CCCCC3)CC2)CC1`, the IC50 entry is “inactive”.

On to `CC(=O)c1ccccc1OCC(O)CN1CCN(CCN2C(=O)c3cccc4cccc(c34)C2=O)CC1` (centres undefined), for which the half-maximal inhibitory concentration (IC50) is 10.5 µM.

Regarding `Cc1cc(NC(=O)Cn2c(=O)n(CCCCC(=O)NC3CCN(Cc4ccccc4)CC3)c(=O)c3ccccc32)n[nH]1`, the IC50 was 12.9 µM.

Regarding `Cc1cc(C)c2sc(N(CCCN(C)C)C(=O)c3ccc(S(=O)(=O)N4CCc5ccccc5C4)cc3)nc2c1`, the IC50 was 2.28 µM.

In the case of `CCN(Cc1ccccc1)S(=O)(=O)c1ccc(C(=O)N(CCCN(C)C)c2nc3cc4c(cc3s2)OCCO4)cc1`, the IC50 is 1.51 µM.

(Values after PubChem BioAssay AID504687 (Sanford-Burnham Center for Chemical Genomics, 2011).)
